Columns and labels:
Assay type in all cases: cell-based, human
[1] = tested on: clonotypic MM cells in rBM (MM BMC); experiment: Reduction of clonal cells in 3-D rBM culture, RQ-PCR with patient specific primers; details: rBM grown 14 days, single treatment 7 days, 7 days recovery
Method: (§1) For preclinical studies, the rBM was grown for 14 days to allow for stratification of the culture and expansion of the malignant cells and the stromal layer. A single treatment of either melphalan or bortezomib was administered in a fresh aliquot of Growth Medium overlaid on top of the 3-D culture. After 7 days of treatment, fresh medium was added and cells were allowed to recover for an additional period of 7 days, after which cells were isolated using the Cell Recovery Solution and the effects of treatment were analyzed, and for CFU activity of drug resistant LRC.
For real-time quantitative PCR (RQ-PCR), total genomic DNA was isolated with TRIzol™ reagent (Invitrogen, Burlington, ON) per manufacturer's instructions. […] Controls included cloned VDJ sequences for each patient used to generate a standard curve for the specific clonotypic sequence and comparison with a standard curve for a housekeeping gene, β2 microglobulin (normalized to the two copies of B2M templates/cell), to quantify the number of templates in unknown samples before and after 3-D culture. […]
FIG. 4a illustrates the reduction of the clonal cells as measured by RQ-PCR with patient specific primers (melphalan p=0.016, bortezomib p=0.39). […] Treatment of rBM with melphalan led to a 60% decrease in the number of clonotypic cells as measured by RQ-PCR.

[2] = tested on: rBM cells (MM BMC); CD138+/CD56+ population; experiment: Apoptosis within rBM by flow cytometry measuring AnnexinV reactivity
Method: as §1
For flow cytometry, cells were isolated from 3-D cultures with Cell Recovery Solution, stained with various FITC tagged CD antigens or Annexin V-PE and analyzed by flow cytometry to measure the extent of proliferation and apoptosis using a FACSort flow cytometer (BD, Oakville, ON). Data was analyzed with CellQuest Pro software.
FIGS. 4a-d illustrate a comparative evaluation of two MM therapeutics in a 3-D BM cell culture assembly in accordance with various embodiments. […]
FIG. 4b illustrates apoptosis within rBM as assessed by flow cytometry measuring AnnexinV reactivity post treatment with melphalan (left panel) or bortezomib (middle panel). MM specific cell killing by bortezomib was monitored in the CD138+/CD56+ population by AnnexinV reactivity (right panel).

[3] = tested on: stromal compartment of rBM; details: brightfield microscopy; TRAP, Oil Red, ALP staining at rEnd; FIG. 4c, 4d
Method: as §1
For microscopy, confocal z-slices were imaged on a Carl Zeiss confocal LSM 510 microscope equipped with appropriate filters and the 3D reconstruction was done using Zeiss 510 image analysis software. Quantification of LRC positioning was performed with Imaris 3.2.2 software, Bitplane AG (Zurich, Switzerland). Stromal cells were stained with TRAP, Oil Red, Alkaline phosphatase, or Alizarin Red according to the manufacturer's instructions and imaged on Zeiss Axioskop digital microscope. For fibronectin, phalloidin and N-cadherin staining, cells were fixed with 1% neutral buffered formalin for 10 min at RT, permeabilized with 0.5% Triton X-100 and non-specific binding was blocked with 1% BSA for 1 hr at RT. […]

LRCs (putative MM-CSC) = experiment: Persistence of label retaining cells (LRC) in melphalan treated 3-D cultures of mobilized blood cells, CFSE flow cytometry; details: mobilized blood mononuclear cells, 14 days in 3-D, then treated
Method: In the embodiments illustrated in FIGS. 1-7, 3-D cell culture and other techniques were performed. BMC were isolated from BM aspirates by Ficoll-Paque gradient centrifugation per manufacturer's instructions. Surface coating (rEnd) was created by incubating tissue culture plates with fibronectin/collagen I (1:1) in PBS at a final concentration of 5 μg/1 cm^2 of each protein. Plates were incubated for <30 min at room temperature (RT) and the remaining fluid was removed and was replaced with the rBM layer consisting of the BMC cells in an ECM mixture of Matrigel™/fibronectin (2:1 v/v). For analysis of proliferation and LRCs, cells were labeled with 0.25 μM CFSE for 15 min at 40° C. […]
For CFU assays, CFSE labeled cells were isolated from the 3-D culture and the CFSE+ cells were sorted on an EPICS ALTRA cell sorter, by gating on the live cells based on the forward and side scatter and on the CFSE+ population based on fluorescence intensity in the FL1 channel (see FIG. 6a, below). […] The MethoCult™ cultures were incubated for 14 days and the resulting colonies were counted. […]
FIG. 6a illustrates the flow cytometry profile of the LRCs. The gate for sorting was set to isolate CFSE-high cells and the percentage of LRCs was calculated as the percent of CFSE-high cells in the live cell fraction of the 3-D culture.

SMILES | reduction in clonotypic cells (in words) ([1]; FIG. 4a, p=0.39) | apoptosis in CD138+CD56+ PC population (AnnexinV reactivity) ([2]; CD138+/CD56+ population, FIG. 4b right panel) | decrease in the number of clonotypic cells as measured by RQ-PCR ([1]; p=0.016) [%] | effect on stromal compartment of rBM [3] | depletion in 3-D of other hematopoietic cells (LRCs (putative MM-CSC)) [%] | enrichment of LRCs in treated 3-D cultures (LRCs (putative MM-CSC); CFSE labeled, FIG. 6a) [%] | apoptosis in rBM (AnnexinV reactivity) ([2]; overall rBM, post treatment, FIG. 4b, 4c)
CC(C)C[C@H](NC(=O)[C@H](Cc1ccccc1)NC(=O)c1cnccn1)B(O)O [bortezomib] | neither a significant reduction in clonotypic cells | the only cell population subject to bortezomib induced apoptosis | – | – | – | – | –
N[C@@H](Cc1ccc(N(CCCl)CCCl)cc1)C(=O)O [melphalan] | – | – | 60 | remained intact | ≥ 50 | 50 | induced apoptosis of all cell types within the hematopoietic hierarchy
